This note sets out measurements from US7964598B2 (The J. David Gladstone Institutes, priority 1995, dated 2011).

Where “and” joins values, the source holds several entries; their conditions need not be identical. Equal values may be shown once.

In data set [1] the test system is YFP-apoE4-CFP cells. Kind of data set: MTT cytotoxicity assay. It counts as cell-based, mouse. The note with it: 5-10 μM. From the text: Since the emission spectrum of CFP (460-520 nm) overlaps with the excitation spectrum of YFP (480-520 nm), FLEXstation (Molecular Devices) can be used to measure FRET in living cells expressing YFP-apoE3-CFP or YFP-apoE4-CFP in a high throughput manner. […] Thus, the ratio of FRET to CFP emission in cells expressing YFP-apoE4-CFP is much higher than that in those expressing YFP-apoE3-CFP (FIG. 31). […] Since the FLEXstation can read FRET in both cells and the culture media treated without or with various small molecules, this assay allows one to know whether a small molecule affects apoE4 domain interaction only in the medium (“medium FRET”) or also inside the cell (“intracellular FRET”). In addition, after measurement of the intracellular FRET, the cells can be incubated further with MTT to determine the cytotoxicity of the compound. Thus, the cell-based FRET assay can simultaneously provide three sets of data-intracellular FRET, medium FRET, and cytotoxicity.

Data set [2] relates to B103 cells. The data set can be described thus: Toxicity to B103 cells. The note with it: at the micromole level. It counts as cell-based, rat.
In data set [3] the test system is apoE3. Kind of data set: Aβ production assay, B103-APP cells incubated with apoE3. Type of data set: cell-based, rat. The note with it: FIG. 22. How it is done:
(§1) Aβ production assay. Stable neuroblastoma B103 cell lines transfected with a wildtype hAPP cDNA construct (B 103-APP) were selected by growing them in Dulbecco's modified Eagle's medium (DMEM) containing 10% fetal calf serum (FBS) and 400 μg/ml G418. A cell line expressing APP at similar levels in mouse brains has been identified by RNase protection assay (RPA) and was used in the studies described below. To determine Aβ production, B103-APP cells were incubated with serum-free minimal essential medium (MEM) containing N2 supplements with or without apoE isoforms for 24 h at 37° C. After incubation, 50 μl of medium was collected and assayed for Aβ levels with an ELISA method. The cells were lysed, and cellular proteins were determined by the Lowry method. AP production was normalized to cellular protein.
(§2) Cell Culture. Rat neuroblastoma B103 cells stably expressing human wildtype APP (hAPP695wt) (Xu et al. ((1999) Proc. Natl. Acad. Sci. USA 96:7547-7552; Esposito, et al. (2004) J. Neurochem. 91:1260-1274) were generated in Dr. Lennart Mucke's laboratory at the Gladstone Institute of Neurological Disease and maintained in Dulbecco's modified Eagle's medium (DMEM) (GIBCO, Grand Island, N.Y.) containing 400 μg/ml G418, 10% fetal bovine serum, and 5% horse serum at 37° C. Twenty-four hours after plating into 48-well plates (1×10^5 cells per well), cells were washed twice with serum-free DMEM and cultured for another 24 h in DMEM containing 1% N-2 supplement (GIBCO) to induce differentiation. The cells were treated with either β-VLDL (25 μg/ml cholesterol), recombinant human apoE isoform-enriched β-VLDL (7.5 μg/ml apoE and 25 μg/ml cholesterol), or recombinant human apoE (7.5 μg/ml apoE) in fresh DMEM containing 1% N-2 supplement for an additional 24 h. In some experiments, RAP (25 nM or 1 μM) was added to the cells 1 h before apoE treatment.
(§3) Aβ Assay. Aβ secreted into the medium was detected with a sandwich enzyme-linked immunosorbent assay (ELISA), using mAb 266 as a capturing antibody and 3D6 as a detecting antibody, as described. Johnson-Wood et al. ((1997) Proc. Natl. Acad. Sci. USA 94:1550-1555). Aβ was quantified from a standard curve (Aβ42; Bachem, Torrance, Calif.) and normalized by total cellular protein.

Data set [4] has as its system Neuro-2a cells. The data set can be described thus: Aβ-induced apoptosis (DNA fragmentation assay). It counts as cell-based, mouse. How it is done: DNA Fragmentation Assay—DNA fragmentation of apoptotic cells was determined with Cell Death Detection ELISA kits (Roche, Indianapolis, Ind.).
FIG. 38. […] Control cells were not treated with Aβ1-42. Apoptotic cell death was measured with a DNA fragmentation assay. Values are the mean±S.D. of three separate experiments.
FIGS. 39A and 39B. […] Lysosomal leakage was quantitated by assaying cytosolic 0-hexosaminidase activity. […] Conditioned media were prepared as described above. Apoptosis was quantitated by measuring DNA fragmentation.

Data set [5] in a line: Water solubility. It counts as physicochemical.
Data set [6] addresses T1, apoE3 (Homo sapiens, UniProt P02649).
T1 construct: made in house
The data set can be described thus: Emulsion binding assay, apoE3. The note with it: follow-up assay. As to the method:
(§4) Preparation of emulsion particles. Triolein (160 mg) and L-alpha-Phosphatidylcholine (40 mg) are combined and dried under nitrogen. After the addition of 8 mls of buffer (10 mM Tris, 100 mM KCl, 1 mM EDTA, pH 8.0), the mixture is sonicated in a water bath to obtain a heterogeneous mix of emulsion particles. The particles are harvested by ultracentrifugation (TLA 100.2 rotor, 30,000 rpm for 30 minutes) and the subsequent lipid cake is removed by tube slicing and resuspended in 100 μt 20 mM Phosphate Buffer (PB). Triolein and phospholipid content are measured and total emulsion particle concentration is determined.
(§5) Radiolabelling Freshly denatured and renatured Apolipoprotein E3 and E4 are radiolabelled using Bolton-Hunter Reagent [^125I] (ICN). Specific Activity is determined using Lowry method and Gamma 8000 counter.
(§6) Binding Affinity Assay. […] In glass tubes, 25 μg of protein (with iodinated tracer) was reduced with 1% β-mercaptoethanol. Two hundred and fifty μg of emulsion particles and 2.5 μl of compound (10 mM stock) were added and the final mixture was brought up to 250 μl with 20 mM phosphate buffer (PB). The reaction mixture was then incubated in a 37° C. water bath for 2 hours before being transferred to 1.5 ml ultracentrifuge tubes. Finally, 50 μl of 60% sucrose was mixed with the sample and 400 μl 20 mM PB was carefully layered on top. Using a TLA 100.2 rotor, the tube was spun at 30,000 rpm for 30 minutes and subsequently cut to separate the floating emulsion particle layer from the free protein at the bottom of the tube. These fractions were then combined with the respective half of the actual tube and counted using a Gamma-8000. […] Protein-only assays yielded 94.5-96.6% of protein accumulated in the bottom portion of the tube. In emulsion particle-only assays, 94% of emulsion particles accumulated in the top portion of the tube.
(§7) Preparation of Emulsion Particles and VLDL Binding Affinity Assay. VLDL-like emulsion particles were prepared using triolein (160 mg) and L-alpha-phosphatidylcholine (40 mg), as described. Dong and Weisgraber (1996) supra; and Dong et al. (1994) J. Biol. Chem. 269:22358-22365.

Data set [7] addresses T2, apoE4 (Homo sapiens, UniProt P02649, C130R).
T2 construct: made in house
The data set can be described thus: Emulsion binding assay for domain interaction, apoE4. As to the method: as §4, §5, §6, §7

The test system of data set [8] is Neuro-2a cells. Kind of data set: Aβ-induced lysosomal leakage (cytosolic β-hexosaminidase). Type of data set: cell-based, mouse. How it is done:
The cytosolic fraction was obtained by ultracentrifugation, and the cytosolic β-hexosaminidase activity was measured.
Quantitation of the lysosomal enzyme β-hexosaminidase activity in the cytosol indicates lysosomal leakage. […] After incubation the cells were washed and cytosolic fractions were isolated as described in Materials and Methods. The enzymatic activity of β-hexosaminidase was assayed in 20 μg of cytosolic protein for each sample.
Lysosomal leakage was quantitated by assaying cytosolic 0-hexosaminidase activity. […] Conditioned media were prepared as described above. Apoptosis was quantitated by measuring DNA fragmentation.

Data set [9] relates to apoE4-expressing Neuro-2a cells. The data set can be described thus: Neurite outgrowth, apoE4-expressing Neuro-2a cells. It counts as cell-based, mouse. To be noted: in the presence of β-VLDL. How it is done:
Cells were grown in DME/F12 containing 10% FBS and G418 (400 μg/ml). On the day the experiment was initiated, the cells were subcultured into 35 mm plates in DME/F12 with 10% FBS. The cells were allowed to adhere to the plastic plates for 2 hr at 37° C., and then the culture medium was changed to N2 medium with or without increasing concentrations of lipoproteins. After 48 hr at 37° C., the media were replaced with the same medium (with or without lipoproteins), and the incubation was continued for an additional 48 hr. […] Neurons were imaged in fluorescence mode with a confocal laser scanning system (MRC-600, BioRad, Hercules, Calif.), and the images were digitized with an Image-1/AT image analysis system (Universal Images, West Chester, Pa.). The neuronal images were coded before characterization, and the following variables were measured: 1) number of neurites (defined as cell surface projections at least one-half the cell diameter) on each neuron; 2) neurite branching (the number of branch points on each neurite); and 3) neurite extension (the length of the longest neurite, measured from the cell body). Typically, in each experiment the neurites of 20 to 40 neurons per plate were measured and the results preserved as the mean±S.E.M. […]

The test system of data set [10] is apoE4 enhancement of Aβ production. Kind of data set: Aβ production assay, B103-APP cells incubated with apoE4. Type of data set: cell-based, rat. The note with it: RAP 25 nM, preincubated 1 h. How it is done: as §1, §2, §3
Data set [11] deals with Neuro-2a cells. Kind of data set: Binding of DiI-labeled LDL to Neuro-2a cells. It counts as cell-based, mouse. The note with it: 5 μg/ml of RAP.
[12] abbreviates: follow-up assay, second E4 control.
Setting [13] is: initial assay, 2.5 μl of compound (10 mM stock) in 250 μl, 37° C. 2 hours, listed as 3-butyl-1-ethyl-5-(2-(3-sulfobutyl-benzo(1,3)oxazo, potassium salt)).

T2 sequence (P02649 19-317 C130R): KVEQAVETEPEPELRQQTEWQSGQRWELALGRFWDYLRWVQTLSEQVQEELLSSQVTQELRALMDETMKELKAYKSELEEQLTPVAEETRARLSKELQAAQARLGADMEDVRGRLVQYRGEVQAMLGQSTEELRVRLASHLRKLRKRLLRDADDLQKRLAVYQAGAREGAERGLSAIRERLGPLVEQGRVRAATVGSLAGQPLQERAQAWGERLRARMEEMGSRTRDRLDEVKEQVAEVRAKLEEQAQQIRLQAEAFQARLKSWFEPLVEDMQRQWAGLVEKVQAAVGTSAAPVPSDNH
T1 sequence (P02649 19-317): as the sequence (P02649 19-317 C130R) above, with R112C counted along it

Regarding `CCCCN1C(=O)/C(=C/C=C2/Oc3ccccc3N2CCCCS(=O)(=O)[O-])N(CC)C1=S.[K+]` [GIND-105], the “cytotoxicity (MTT assay)” value in data set [1] was “did not cause significant cytotoxicity”. The “toxicity to B103 cells” value in [2] is given as “no significant toxicity”. Also, in [3], the “effect on apoE3 (Aβ production)” value is “no effect”. Further, in data set [4], the “apoptosis, cells with medium alone or medium containing apoE3 plus Aβ1-42” value is listed as “no significant effect”. Moreover, in data set [5], the water solubility entry is given as “water-soluble”. For the same compound, in data set [6], the “E3 + compound, % bound” value is 30% and the “E3 + compound, % free” value was 70%. In addition, in data set [7] (follow-up assay), the “E4 + cpd n = 3, % bound” value came to 57% and the “E4 + cpd n = 3, % free” value was found to be 43%. Moreover, in [7] (setting [12]), the “E4 control, % bound” value is given as 45% and the “E4 control, % free” value is given as 55%. In data set [7] (setting [13]), the “E4 + cpd, % bound” value is 28% and 21%; the “E4 + cpd, % free” value is 72% and 79%. For the same compound, the “lysosomal leakage, cells with medium alone or medium containing apoE3 plus Aβ1-42” value in data set [8] was “no significant effect”.

Take “RAP: receptor-associated protein, 39-kD glycoprotein, LRP antagonist”: in data set [9], the “inhibition of neurite extension seen in the apoE4-expressing cells” value is given as “blocked the inhibition of neurite extension”. The “apoE4 enhancement of Aβ production” value in data set [10] is recorded as “abolished the apoE4-induced enhancement of Aβ production”. In addition, in [11], the “binding of DiI-labeled LDL to the Neuro-2a cells” value is on record as “did not block”.
